Assay results as given in ChEMBL document CHEMBL2150961, “Serum stability of selected decapeptide agonists of KISS1R using pseudopeptides” (Bioorg Med Chem Lett, 2012).
Starred links: 1 amine or outer side, 2 acyl side, 3 side chain; linkers in the order of their positions; H or OH if unused. Non-standard residues stand in square brackets, D forms with d. Residues, ends and D or L forms follow the SMILES beside them. X1 = O=C(CNC(=S)[C@H](Cc1ccccc1)N[*:1])[*:2]; 2Nal = N[C@@H](Cc1ccc2ccccc2c1)C(=O)O; Arg(Me) = CNC(=N)NCCC[C@H](N)C(=O)O; 3Pal = N[C@@H](Cc1cccnc1)C(=O)O; 4Pal = N[C@@H](Cc1ccncc1)C(=O)O; d4Pal = N[C@H](Cc1ccncc1)C(=O)O; azaGly = NNC(=O)O

Assays:
KiSS-1 receptor [1] = molecular target: T1, KiSS-1 receptor (Homo sapiens, UniProt Q969F8); assay: Agonist activity at human KISS1R assessed as induction of intracellular calcium mobilization by fluorometric analysis; assay type: functional, cell-based
T1 sequence (Q969F8 whole entry): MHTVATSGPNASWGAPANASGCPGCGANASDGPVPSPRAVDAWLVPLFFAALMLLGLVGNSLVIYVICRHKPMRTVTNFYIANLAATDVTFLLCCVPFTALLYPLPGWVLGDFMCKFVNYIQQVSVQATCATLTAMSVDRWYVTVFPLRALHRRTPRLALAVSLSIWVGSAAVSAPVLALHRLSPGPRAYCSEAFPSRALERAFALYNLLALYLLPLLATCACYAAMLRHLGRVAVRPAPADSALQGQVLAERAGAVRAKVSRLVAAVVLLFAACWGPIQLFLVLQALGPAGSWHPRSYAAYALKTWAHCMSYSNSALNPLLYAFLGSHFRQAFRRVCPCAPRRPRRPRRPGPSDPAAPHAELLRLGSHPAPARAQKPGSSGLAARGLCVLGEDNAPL

KiSS-1 receptor [2] = molecular target: T1, KiSS-1 receptor; assay: Binding affinity to human KISS1R
[3] = Metabolic stability of the compound in mouse serum assessed as compound residual ratio at 0.1 mM after 1 hr; assay type: ADME, cell-free; conditions: read-out: Stability
[4] = Metabolic stability of the compound in human serum assessed as compound residual ratio after 5 mins; assay type: ADME, cell-free; conditions: read-out: Stability
[5] = Metabolic stability of the compound in human serum assessed as compound residual ratio after 10 mins; assay type: ADME, cell-free; conditions: read-out: Stability
[6] = Metabolic stability of the compound in human serum assessed as compound residual ratio after 15 mins; assay type: ADME, cell-free; conditions: read-out: Stability
[7] = Half life in human serum; assay type: ADME, cell-free
KiSS-1 receptor [8] = molecular target: KiSS-1 receptor (Rattus norvegicus, UniProt Q924U1); assay: Binding affinity to rat KISS1R
Chain of KiSS-1 receptor (Rattus norvegicus, UniProt Q924U1) (Q924U1 whole entry): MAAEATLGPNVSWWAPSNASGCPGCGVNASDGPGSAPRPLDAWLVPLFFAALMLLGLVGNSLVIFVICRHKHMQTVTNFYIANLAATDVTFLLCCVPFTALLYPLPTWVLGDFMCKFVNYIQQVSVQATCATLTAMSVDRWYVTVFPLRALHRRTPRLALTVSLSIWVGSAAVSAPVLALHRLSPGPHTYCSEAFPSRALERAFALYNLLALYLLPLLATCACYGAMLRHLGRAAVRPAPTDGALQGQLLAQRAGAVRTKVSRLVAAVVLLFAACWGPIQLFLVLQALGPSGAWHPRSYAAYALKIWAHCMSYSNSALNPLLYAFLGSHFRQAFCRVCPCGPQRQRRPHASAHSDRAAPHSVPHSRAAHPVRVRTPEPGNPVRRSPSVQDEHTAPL

Serum = assay: Metabolic stability of the compound in human serum; assay type: ADME, cell-free
[9] = Drug metabolism in mouse plasma at 0.1 mM after 1 min by HPLC-ESI-MS analysis; assay type: ADME, cell-free; conditions: read-out: Drug metabolism

Compound | EC50 (KiSS-1 receptor [1]) | IC50 (KiSS-1 receptor [2]) | remaining at 1 h, 100 µM [3] | remaining at 5 min [4] | remaining at 10 min [5] | remaining at 0.25 h [6] | half-life [7] | IC50 (KiSS-1 receptor [8]) | Stability (Serum) | metabolised at 1 min, 100 µM [9]
CNC(N)=NCCC[C@H](NC(=O)[C@H](CC(C)C)NC(=O)CNC(=O)[C@H](Cc1ccccc1)NC(=O)[C@H](CO)NC(=O)[C@H](CC(N)=O)NC(=O)[C@H](Cc1c[nH]c2ccccc12)NC(=O)[C@H](CC(N)=O)NC(=O)[C@H](N)Cc1ccc(O)cc1)C(=O)N[C@@H](Cc1ccccc1)C(N)=O | 0.065 nM | 0.11 nM | 18.1% | 90.7% | 85.8% | 82.7% | 1.25 h |  |  | 
CNC(N)=NCCC[C@H](NC(=O)[C@H](CC(C)C)NC(=O)CNC[C@H](Cc1ccccc1)NC(=O)[C@H](CO)NC(=O)[C@H](CC(N)=O)NC(=O)[C@H](Cc1c[nH]c2ccccc12)NC(=O)[C@H](CC(N)=O)NC(=O)[C@H](N)Cc1ccc(O)cc1)C(=O)N[C@@H](Cc1ccccc1)C(N)=O | 0.62 nM | 0.61 nM | 12.1% |  |  |  |  | 1.4 nM |  | 
CNC(N)=NCCC[C@H](NC(=O)[C@H](CC(C)C)NC(=O)CC(=O)N[C@H](Cc1ccccc1)NC(=O)[C@H](CO)NC(=O)[C@H](CC(N)=O)NC(=O)[C@H](Cc1c[nH]c2ccccc12)NC(=O)[C@H](CC(N)=O)NC(=O)[C@H](N)Cc1ccc(O)cc1)C(=O)N[C@@H](Cc1ccccc1)C(N)=O | 0.95 nM | 0.51 nM | 46.8% |  |  |  |  | 2.9 nM |  | 
CNC(=N)NCCC[C@H](NC(=O)[C@H](CC(C)C)NC(=O)NNC(=O)[C@H](Cc1ccccc1)NC(=O)[C@H](CO)NC(=O)[C@H](CC(N)=O)NC(=O)[C@H](Cc1c[nH]c2ccccc12)NC(=O)[C@H](CC(N)=O)NC(=O)[C@H](N)Cc1ccc(O)cc1)C(=O)N[C@@H](Cc1ccccc1)C(N)=O |  | 0.16 nM | 39.5% |  |  |  |  |  |  | 
CNC(N)=NCCC[C@H](NC(=O)[C@H](CC(C)C)NC(=O)NNC(=O)[C@H](Cc1ccccc1)NC(=O)[C@H](CO)NC(=O)[C@H](CC(N)=O)NC(=O)[C@H](CC1CCCCC1)NC(=O)[C@H](CC(N)=O)NC(=O)[C@H](N)Cc1ccc(O)cc1)C(=O)N[C@@H](Cc1ccccc1)C(N)=O | 0.1 nM | 0.19 nM | 32% |  |  |  |  | 0.24 nM |  | 
CNC(N)=NCCC[C@H](NC(=O)[C@H](CC(C)C)NC(=O)NNC(=O)[C@H](Cc1ccccc1)NC(=O)[C@H](CO)NC(=O)[C@H](CC(N)=O)NC(=O)[C@@H](Cc1c[nH]c2ccccc12)NC(=O)[C@H](CC(N)=O)NC(=O)[C@H](N)Cc1ccc(O)cc1)C(=O)N[C@@H](Cc1ccccc1)C(N)=O | 0.072 nM | 0.19 nM | 56.4% |  |  |  |  |  |  | 
CC[C@H](C)[C@H](NC(=O)[C@H](CC(N)=O)NC(=O)[C@H](N)Cc1ccc(O)cc1)C(=O)N[C@@H](CC(N)=O)C(=O)N[C@@H](CO)C(=O)N[C@@H](Cc1ccccc1)C(=O)NNC(=O)N[C@@H](CC(C)C)C(=O)N[C@@H](CCCNC(=N)NC)C(=O)N[C@@H](Cc1ccccc1)C(N)=O (H-[dY]NINSF[azaGly]L[Arg(Me)]F-NH2) | 0.13 nM | 0.43 nM |  |  |  |  |  | 0.46 nM |  | 
CNC(N)=NCCC[C@H](NC(=O)[C@H](CC(C)C)NC(=O)NNC(=O)[C@H](Cc1ccccc1)NC(=O)[C@H](CO)NC(=O)[C@H](CC(N)=O)NC(=O)[C@H](CO)NC(=O)[C@H](CC(N)=O)NC(=O)[C@H](N)Cc1ccc(O)cc1)C(=O)N[C@@H](Cc1ccccc1)C(N)=O (H-[dY]NSNSF[azaGly]L[Arg(Me)]F-NH2) | 0.73 nM | 0.49 nM | 50% | 86.5% | 85.3% | 86.4% |  | 0.43 nM | Stable | 
CNC(N)=NCCC[C@H](NC(=O)[C@H](CC(C)C)NC(=O)NNC(=O)[C@H](Cc1ccccc1)NC(=O)[C@H](CO)NC(=O)[C@H](CC(N)=O)NC(=O)[C@@H](NC(=O)[C@H](CC(N)=O)NC(=O)[C@H](N)Cc1ccc(O)cc1)[C@@H](C)O)C(=O)N[C@@H](Cc1ccccc1)C(N)=O (H-[dY]NTNSF[azaGly]L[Arg(Me)]F-NH2) | 0.24 nM | 0.86 nM | 62.5% |  |  |  |  | 0.83 nM |  | 
CNC(N)=NCCC[C@H](NC(=O)[C@H](CC(C)C)NC(=O)CNC(=S)[C@H](Cc1ccccc1)NC(=O)[C@H](CO)NC(=O)[C@H](CC(N)=O)NC(=O)[C@H](Cc1c[nH]c2ccccc12)NC(=O)[C@H](CC(N)=O)NC(=O)[C@H](N)Cc1ccc(O)cc1)C(=O)N[C@@H](Cc1ccccc1)C(N)=O (H-[dY]NWNS[X1]L[Arg(Me)]F-NH2) | 0.041 nM | 2.8 nM | 35.3% |  |  |  |  | 3.3 nM |  | 
CNC(=N)NCCC[C@H](NC(=O)[C@H](CC(C)C)NC(=O)NNC(=O)[C@H](Cc1ccccc1)NC(=O)[C@H](CO)NC(=O)[C@H](CC(N)=O)NC(=O)[C@H](Cc1ccc2ccccc2c1)NC(=O)[C@H](CC(N)=O)NC(=O)[C@H](N)Cc1ccc(O)cc1)C(=O)N[C@@H](Cc1ccccc1)C(N)=O (H-[dY]N[2Nal]NSF[azaGly]L[Arg(Me)]F-NH2) | 0.098 nM | 0.13 nM | 43.6% |  |  |  |  | 0.2 nM |  | 
CNC(=N)NCCC[C@H](NC(=O)[C@H](CC(C)C)NC(=O)NNC(=O)[C@H](Cc1ccccc1)NC(=O)[C@H](CO)NC(=O)[C@H](CC(N)=O)NC(=O)[C@H](Cc1cccnc1)NC(=O)[C@H](CC(N)=O)NC(=O)[C@H](N)Cc1ccc(O)cc1)C(=O)N[C@@H](Cc1ccccc1)C(N)=O (H-[dY]N[3Pal]NSF[azaGly]L[Arg(Me)]F-NH2) | 0.24 nM | 0.7 nM | 50.6% |  |  |  |  | 0.89 nM |  | 
CNC(N)=NCCC[C@H](NC(=O)[C@H](CC(C)C)NC(=O)NNC(=O)[C@H](Cc1ccccc1)NC(=O)[C@H](CO)NC(=O)[C@H](CC(N)=O)NC(=O)[C@H](Cc1ccncc1)NC(=O)[C@H](CC(N)=O)NC(=O)[C@H](N)Cc1ccc(O)cc1)C(=O)N[C@@H](Cc1ccccc1)C(N)=O (H-[dY]N[4Pal]NSF[azaGly]L[Arg(Me)]F-NH2) | 0.11 nM | 0.3 nM | 30.7% |  |  |  |  | 0.28 nM |  | 
CNC(N)=NCCC[C@H](NC(=O)[C@H](CC(C)C)NC(=O)NNC(=O)[C@H](Cc1ccccc1)NC(=O)[C@H](CO)NC(=O)[C@H](CC(N)=O)NC(=O)[C@@H](Cc1ccncc1)NC(=O)[C@H](CC(N)=O)NC(=O)[C@H](N)Cc1ccc(O)cc1)C(=O)N[C@@H](Cc1ccccc1)C(N)=O (H-[dY]N[d4Pal]NSF[azaGly]L[Arg(Me)]F-NH2) | 0.59 nM | 0.28 nM |  |  |  |  |  | 0.28 nM |  | 
CC(C)C[C@H](NC(=O)CNC(=O)[C@H](Cc1ccccc1)NC(=O)[C@H](CO)NC(=O)[C@H](CC(N)=O)NC(=O)[C@H](Cc1c[nH]c2ccccc12)NC(=O)[C@H](CC(N)=O)NC(=O)[C@@H](N)Cc1ccc(O)cc1)C(=O)N[C@@H](CCCNC(=N)N)C(=O)N[C@@H](Cc1ccccc1)C(N)=O [KISSPEPTIN-10] | 0.049 nM | 0.082 nM |  | 0.9% | < 0.5% | < 0.5% | < 0.0167 h |  |  | > 50%
